ChEMBL document CHEMBL3046407, “Toxicity of monoterpenes against larvae and adults of Colorado potato beetle, Leptinotarsa decemlineata Say (Coleoptera: Chrysomelidae)” (2007)

Tests used:
[1] = test system: Leptinotarsa decemlineata; type: functional, Instar larval stage
[2] = test system: Leptinotarsa decemlineata; experiment: Insecticidal activity against third-instar larval stage of Leptinotarsa decemlineata infested potato leaves assessed as mortality at 1 mg after 24 hr relative to control; type: functional
[3] = test system: Leptinotarsa decemlineata; type: functional, Instar larval stage; remark: listed apart in the source
[4] = test system: Leptinotarsa decemlineata; type: functional, Instar larval stage; remark: listed apart in the source
[5] = test system: Leptinotarsa decemlineata; experiment: Insecticidal activity against first-instar larval stage of Leptinotarsa decemlineata infested potato leaves assessed as mortality at 1 mg after 48 hr relative to control; type: functional
[6] = test system: Leptinotarsa decemlineata; type: functional, Instar larval stage; remark: listed apart in the source
[7] = test system: Leptinotarsa decemlineata; experiment: Insecticidal activity against third-instar larval stage of Leptinotarsa decemlineata infested potato leaves assessed as mortality at 0.5 mg after 12 hr relative to control; type: functional
[8] = test system: Leptinotarsa decemlineata; experiment: Insecticidal activity against third-instar larval stage of Leptinotarsa decemlineata infested potato leaves assessed as mortality at 1 mg after 12 hr relative to control; type: functional
[9] = test system: Leptinotarsa decemlineata; type: functional, Instar larval stage; remark: listed apart in the source
[10] = test system: Leptinotarsa decemlineata; type: functional, Instar larval stage; remark: listed apart in the source
[11] = test system: Leptinotarsa decemlineata; experiment: Insecticidal activity against adult Leptinotarsa decemlineata infested potato leaves assessed as mortality at 1 mg after 96 hr relative to control; type: functional
[12] = test system: Leptinotarsa decemlineata; type: functional, Instar larval stage; remark: listed apart in the source
[13] = test system: Leptinotarsa decemlineata; experiment: Insecticidal activity against second-instar larval stage of Leptinotarsa decemlineata infested potato leaves assessed as mortality at 1 mg after 12 hr relative to control; type: functional
[14] = test system: Leptinotarsa decemlineata; experiment: Insecticidal activity against first-instar larval stage of Leptinotarsa decemlineata infested potato leaves assessed as mortality at 0.5 mg after 24 hr relative to control; type: functional
[15] = test system: Leptinotarsa decemlineata; experiment: Insecticidal activity against adult Leptinotarsa decemlineata infested potato leaves assessed as mortality at 1 mg after 24 hr relative to control; type: functional
[16] = test system: Leptinotarsa decemlineata; experiment: Insecticidal activity against first-instar larval stage of Leptinotarsa decemlineata infested potato leaves assessed as mortality at 1 mg after 12 hr relative to control; type: functional
[17] = test system: Leptinotarsa decemlineata; experiment: Insecticidal activity against second-instar larval stage of Leptinotarsa decemlineata infested potato leaves assessed as mortality at 0.5 mg after 12 hr relative to control; type: functional
[18] = test system: Leptinotarsa decemlineata; experiment: Insecticidal activity against adult Leptinotarsa decemlineata infested potato leaves assessed as mortality at 0.5 mg after 48 hr relative to control; type: functional
[19] = test system: Leptinotarsa decemlineata; type: functional, Instar larval stage; remark: listed apart in the source
[20] = test system: Leptinotarsa decemlineata; experiment: Insecticidal activity against adult Leptinotarsa decemlineata infested potato leaves assessed as mortality at 0.5 mg after 96 hr relative to control; type: functional
[21] = test system: Leptinotarsa decemlineata; type: functional, Instar larval stage; remark: listed apart in the source
[22] = test system: Leptinotarsa decemlineata; experiment: Insecticidal activity against adult Leptinotarsa decemlineata infested potato leaves assessed as mortality at 1 mg after 12 hr relative to control; type: functional
[23] = test system: Leptinotarsa decemlineata; experiment: Insecticidal activity against adult Leptinotarsa decemlineata infested potato leaves assessed as mortality at 1 mg after 48 hr relative to control; type: functional
[24] = test system: Leptinotarsa decemlineata; experiment: Insecticidal activity against third-instar larval stage of Leptinotarsa decemlineata infested potato leaves assessed as mortality at 0.5 mg after 24 hr relative to control; type: functional
[25] = test system: Leptinotarsa decemlineata; experiment: Insecticidal activity against adult Leptinotarsa decemlineata infested potato leaves assessed as mortality at 0.5 mg after 24 hr relative to control; type: functional
[26] = test system: Leptinotarsa decemlineata; type: functional, Instar larval stage; remark: listed apart in the source
[27] = test system: Leptinotarsa decemlineata; experiment: Insecticidal activity against first-instar larval stage of Leptinotarsa decemlineata infested potato leaves assessed as mortality at 0.5 mg after 12 hr relative to control; type: functional
[28] = test system: Leptinotarsa decemlineata; experiment: Insecticidal activity against first-instar larval stage of Leptinotarsa decemlineata infested potato leaves assessed as mortality at 0.5 mg after 96 hr relative to control; type: functional
[29] = test system: Leptinotarsa decemlineata; experiment: Insecticidal activity against first-instar larval stage of Leptinotarsa decemlineata infested potato leaves assessed as mortality at 0.5 mg after 48 hr relative to control; type: functional
[30] = test system: Leptinotarsa decemlineata; experiment: Insecticidal activity against first-instar larval stage of Leptinotarsa decemlineata infested potato leaves assessed as mortality at 1 mg after 96 hr relative to control; type: functional
[31] = test system: Leptinotarsa decemlineata; experiment: Insecticidal activity against first-instar larval stage of Leptinotarsa decemlineata infested potato leaves assessed as mortality at 1 mg after 24 hr relative to control; type: functional
[32] = test system: Leptinotarsa decemlineata; experiment: Insecticidal activity against adult Leptinotarsa decemlineata infested potato leaves assessed as mortality at 0.5 mg after 12 hr relative to control; type: functional
[33] = test system: Leptinotarsa decemlineata; experiment: Insecticidal activity against third-instar larval stage of Leptinotarsa decemlineata infested potato leaves assessed as mortality at 10 ul after 12 hr relative to control; type: functional
[34] = test system: Leptinotarsa decemlineata; experiment: Insecticidal activity against adult Leptinotarsa decemlineata infested potato leaves assessed as mortality at 20 ul after 12 hr relative to control; type: functional
[35] = test system: Leptinotarsa decemlineata; experiment: Insecticidal activity against adult Leptinotarsa decemlineata infested potato leaves assessed as mortality at 20 ul after 48 hr relative to control; type: functional
[36] = test system: Leptinotarsa decemlineata; experiment: Insecticidal activity against first-instar larval stage of Leptinotarsa decemlineata infested potato leaves assessed as mortality at 10 ul after 24 hr relative to control; type: functional
[37] = test system: Leptinotarsa decemlineata; experiment: Insecticidal activity against third-instar larval stage of Leptinotarsa decemlineata infested potato leaves assessed as mortality at 20 ul after 24 hr relative to control; type: functional
[38] = test system: Leptinotarsa decemlineata; experiment: Insecticidal activity against third-instar larval stage of Leptinotarsa decemlineata infested potato leaves assessed as mortality at 10 ul after 96 hr (reference value: 3.3 +/- 3.3%); type: functional
[39] = test system: Leptinotarsa decemlineata; experiment: Insecticidal activity against adult Leptinotarsa decemlineata infested potato leaves assessed as mortality at 10 ul after 96 hr relative to control; type: functional
[40] = test system: Leptinotarsa decemlineata; experiment: Insecticidal activity against first-instar larval stage of Leptinotarsa decemlineata infested potato leaves assessed as mortality at 20 ul after 96 hr relative to control; type: functional
[41] = test system: Leptinotarsa decemlineata; experiment: Insecticidal activity against first-instar larval stage of Leptinotarsa decemlineata infested potato leaves assessed as mortality at 20 ul after 12 hr relative to control; type: functional
[42] = test system: Leptinotarsa decemlineata; experiment: Insecticidal activity against first-instar larval stage of Leptinotarsa decemlineata infested potato leaves assessed as mortality at 10 ul after 12 hr relative to control; type: functional
[43] = test system: Leptinotarsa decemlineata; experiment: Insecticidal activity against third-instar larval stage of Leptinotarsa decemlineata infested potato leaves assessed as mortality at 20 ul after 12 hr relative to control; type: functional
[44] = test system: Leptinotarsa decemlineata; experiment: Insecticidal activity against second-instar larval stage of Leptinotarsa decemlineata infested potato leaves assessed as mortality at 20 ul after 48 hr (reference value: 3.3 +/- 3.3%); type: functional
[45] = test system: Leptinotarsa decemlineata; experiment: Insecticidal activity against third-instar larval stage of Leptinotarsa decemlineata infested potato leaves assessed as mortality at 10 ul after 48 hr (reference value: 3.3 +/- 3.3%); type: functional
[46] = test system: Leptinotarsa decemlineata; experiment: Insecticidal activity against adult Leptinotarsa decemlineata infested potato leaves assessed as mortality at 10 ul after 12 hr relative to control; type: functional
[47] = test system: Leptinotarsa decemlineata; experiment: Insecticidal activity against third-instar larval stage of Leptinotarsa decemlineata infested potato leaves assessed as mortality at 10 ul after 24 hr relative to control; type: functional
[48] = test system: Leptinotarsa decemlineata; experiment: Insecticidal activity against second-instar larval stage of Leptinotarsa decemlineata infested potato leaves assessed as mortality at 10 ul after 12 hr relative to control; type: functional
[49] = test system: Leptinotarsa decemlineata; experiment: Insecticidal activity against second-instar larval stage of Leptinotarsa decemlineata infested potato leaves assessed as mortality at 10 ul after 24 hr (reference value: 3.3 +/- 3.3%); type: functional
[50] = test system: Leptinotarsa decemlineata; experiment: Insecticidal activity against adult Leptinotarsa decemlineata infested potato leaves assessed as mortality at 20 ul after 96 hr relative to control; type: functional
[51] = test system: Leptinotarsa decemlineata; experiment: Insecticidal activity against second-instar larval stage of Leptinotarsa decemlineata infested potato leaves assessed as mortality at 10 ul after 48 hr (reference value: 3.3 +/- 3.3%); type: functional
[52] = test system: Leptinotarsa decemlineata; experiment: Insecticidal activity against adult Leptinotarsa decemlineata infested potato leaves assessed as mortality at 10 ul after 24 hr relative to control; type: functional
[53] = test system: Leptinotarsa decemlineata; experiment: Insecticidal activity against first-instar larval stage of Leptinotarsa decemlineata infested potato leaves assessed as mortality at 10 ul after 96 hr relative to control; type: functional
[54] = test system: Leptinotarsa decemlineata; experiment: Insecticidal activity against second-instar larval stage of Leptinotarsa decemlineata infested potato leaves assessed as mortality at 20 ul after 96 hr (reference value: 3.3 +/- 3.3%); type: functional
[55] = test system: Leptinotarsa decemlineata; experiment: Insecticidal activity against adult Leptinotarsa decemlineata infested potato leaves assessed as mortality at 20 ul after 24 hr relative to control; type: functional
[56] = test system: Leptinotarsa decemlineata; experiment: Insecticidal activity against second-instar larval stage of Leptinotarsa decemlineata infested potato leaves assessed as mortality at 20 ul after 12 hr relative to control; type: functional
[57] = test system: Leptinotarsa decemlineata; experiment: Insecticidal activity against second-instar larval stage of Leptinotarsa decemlineata infested potato leaves assessed as mortality at 10 ul after 96 hr (reference value: 3.3 +/- 3.3%); type: functional
[58] = test system: Leptinotarsa decemlineata; experiment: Insecticidal activity against adult Leptinotarsa decemlineata infested potato leaves assessed as mortality at 10 ul after 48 hr relative to control; type: functional
[59] = test system: Leptinotarsa decemlineata; experiment: Insecticidal activity against first-instar larval stage of Leptinotarsa decemlineata infested potato leaves assessed as mortality at 20 ul after 48 hr relative to control; type: functional
Sitophilus granarius = experiment: Insecticidal activity against Sitophilus granarius (granary weevil) assessed as mortality; type: functional
[60] = test system: Leptinotarsa decemlineata; experiment: Insecticidal activity against third-instar larval stage of Leptinotarsa decemlineata infested potato leaves assessed as mortality at 20 ul after 96 hr (reference value: 3.3 +/- 3.3%); type: functional
[61] = test system: Leptinotarsa decemlineata; experiment: Insecticidal activity against first-instar larval stage of Leptinotarsa decemlineata infested potato leaves assessed as mortality at 10 ul after 48 hr relative to control; type: functional
[62] = test system: Leptinotarsa decemlineata; experiment: Insecticidal activity against second-instar larval stage of Leptinotarsa decemlineata infested potato leaves assessed as mortality at 20 ul after 24 hr (reference value: 3.3 +/- 3.3%); type: functional
[63] = test system: Leptinotarsa decemlineata; experiment: Insecticidal activity against third-instar larval stage of Leptinotarsa decemlineata infested potato leaves assessed as mortality at 20 ul after 48 hr (reference value: 3.3 +/- 3.3%); type: functional
[64] = test system: Leptinotarsa decemlineata; experiment: Insecticidal activity against first-instar larval stage of Leptinotarsa decemlineata infested potato leaves assessed as mortality at 20 ul after 24 hr relative to control; type: functional

CC1(C)[C@H](/C=C(\Cl)C(F)(F)F)[C@@H]1C(=O)O[C@@H](C#N)c1cccc(Oc2ccccc2)c1 (relative stereo) [REL-LAMBDA CYHALOTHRIN]
mortality [1]: 100% | mortality [2]: 90% | mortality [3]: 100% | mortality [4]: 100% | mortality [5]: 100% | mortality [6]: 86.7% | mortality [7]: 73.3% | mortality [8]: 86.7% | mortality [9]: 93.3% | mortality [10]: 100% | mortality [11]: 100% | mortality [12]: 100% | mortality [13]: 80% | mortality [14]: 93.3% | mortality [15]: 100% | mortality [16]: 60% | mortality [17]: 73.3% | mortality [18]: 100% | mortality [19]: 100% | mortality [20]: 100% | mortality [21]: 93.3% | mortality [22]: 90% | mortality [23]: 100% | mortality [24]: 86.7% | mortality [25]: 100% | mortality [26]: 100% | mortality [27]: 63.3% | mortality [28]: 100% | mortality [29]: 100% | mortality [30]: 100% | mortality [31]: 90% | mortality [32]: 100%

CC12CCC(CC1)C(C)(C)O2 [EUCALYPTOL]
mortality [33]: 40% | mortality [34]: 83.3% | mortality [35]: 100% | mortality [36]: 66.7% | mortality [37]: 73.3% | mortality [38]: 76.7% | mortality [39]: 100% | mortality [40]: 100% | mortality [41]: 46.7% | mortality [42]: 26.7% | mortality [43]: 56.7% | mortality [44]: 100% | mortality [45]: 63.3% | mortality [46]: 100% | mortality [47]: 50% | mortality [48]: 43.3% | mortality [49]: 100% | mortality [50]: 100% | mortality [51]: 100% | mortality [52]: 100% | mortality [53]: 100% | mortality [54]: 100% | mortality [55]: 100% | mortality [56]: 83.3% | mortality [57]: 100% | mortality [58]: 100% | mortality [59]: 100% | mortality (Sitophilus granarius): 90% | mortality [60]: 86.7% | mortality [61]: 83.3% | mortality [62]: 100% | mortality [63]: 80% | mortality [64]: 100%
